Data from patent US11642339B2 (THERAVANCE BIOPHARMA R&D IP, LLC, priority 2017, dated 2023).
Values joined by “and” are separate entries in the source; they are usually repeats but may differ in a detail not shown here. Equal entries are not always repeated. Where two headings read alike, the source gives them in different places.

Legend:
[1] = tested on: subjects with diabetic or idiopathic gastroparesis; experiment: DIGEST I Phase 2b: weekly GCSI-24H total score;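 note: Patient-reported daily electronic-diary symptom index rating nausea/vomiting, postprandial fullness/early satiety and bloating, averaged weekly, once-daily oral capsule taken before breakfast, baseline from 1-week pretreatment period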
[2] = tested on: subjects with diabetic or idiopathic gastroparesis
[3] = 15 mg/day, Week 8, diabetic patients
[4] = 15 mg/day, Week 8, idiopathic patients
[5] = 15 mg/day, Week 12, diabetic patients
[6] = 15 mg/day, Week 12, idiopathic patients
[7] = 15 mg/day, Week 14 (off therapy), diabetic patients
[8] = 15 mg/day, Week 14 (off therapy), idiopathic patients
[9] = 30 mg/day, Week 4, diabetic patients
[10] = 30 mg/day, Week 4, idiopathic patients
[11] = 30 mg/day, Week 8, diabetic patients
[12] = 30 mg/day, Week 12, diabetic patients
[13] = 30 mg/day, Week 12, idiopathic patients
[14] = 30 mg/day, Week 14 (off therapy), diabetic patients
[15] = 30 mg/day, Week 14 (off therapy), idiopathic patients
[16] = 5 mg/day, Week 4, diabetic gastroparesis population
[17] = 5 mg/day, Week 4, idiopathic gastroparesis population
[18] = 5 mg/day, Week 8, diabetic gastroparesis population
[19] = 5 mg/day, Week 8, idiopathic gastroparesis population
[20] = 15 mg/day, Week 4, diabetic gastroparesis population
[21] = 15 mg/day, Week 4, idiopathic gastroparesis population
[22] = 15 mg/day, Week 8, diabetic gastroparesis population
[23] = 15 mg/day, Week 8, idiopathic gastroparesis population
[24] = 15 mg/day, Week 12, diabetic gastroparesis population
[25] = 15 mg/day, Week 12, idiopathic gastroparesis population
[26] = 30 mg/day, Week 4, diabetic gastroparesis population
[27] = 30 mg/day, Week 4, idiopathic gastroparesis population
[28] = 30 mg/day, Week 8, diabetic gastroparesis population
[29] = 30 mg/day, Week 8, idiopathic gastroparesis population
[30] = 30 mg/day, Week 12, diabetic gastroparesis population
[31] = 30 mg/day, Week 12, idiopathic gastroparesis population

For “1-isopropyl-2-oxo-1,2-dihydroquinoline-3-carboxylic acid {(1S,3R,5R)-8-[(R)-2-hydroxy-3-(methanesulfonyl-methyl-amino)propyl]-8-azabicyclo[3.2.1]oct-3-yl}amide [Velusetrag]”, which “LS Mean change from baseline, weekly GCSI-24H total score” value ([1]; 15 mg/day, Week 8, ITT) is on record?
The value was −1.3 (0.15) points.

What about the “LS Mean Difference vs placebo, weekly GCSI-24H total score” value [1, 3] of the same substance?
Its value is 0.3 points.

And the “LS Mean change from baseline, weekly GCSI-24H total score” value [1, 3]?
The value was −1.2 points.

And the “LS Mean Difference vs placebo, weekly GCSI-24H total score” value [1, 4]?
Its value is −0.4 (0.30) points.

And the “LS Mean change from baseline, weekly GCSI-24H total score” value [1, 4]?
Its value is −1.5 (0.22) points.

What about the “LS Mean Difference vs placebo, weekly GCSI-24H total score” value ([1]; 15 mg/day, Week 12, ITT) of the same substance?
Its value is −0.0 (0.22) points.

And the “LS Mean change from baseline, weekly GCSI-24H total score” value ([1]; 15 mg/day, Week 12, ITT)?
Its value is −1.4 (0.16) points.

What about the “LS Mean Difference vs placebo, weekly GCSI-24H total score” value [1, 5] of the same substance?
The value was 0.4 points.

And the “LS Mean change from baseline, weekly GCSI-24H total score” value [1, 5]?
Its value is −1.3 points.

And the “LS Mean Difference vs placebo, weekly GCSI-24H total score” value [1, 6]?
Its value is −0.4 (0.32) points.

What about the “LS Mean change from baseline, weekly GCSI-24H total score” value [1, 6] of the same substance?
The value was −1.5 (0.24) points.

And the “LS Mean Difference vs placebo, weekly GCSI-24H total score” value [1, 7]?
Its value is 0.4 points.

What about the “LS Mean change from baseline, weekly GCSI-24H total score” value [1, 7] of the same substance?
The value was −1.1 points.

What about the “LS Mean Difference vs placebo, weekly GCSI-24H total score” value [1, 8] of the same substance?
The value was −0.1 (0.31) points.

What about the “LS Mean change from baseline, weekly GCSI-24H total score” value [1, 8] of the same substance?
Its value is −1.2 (0.23) points.

What about the “LS Mean Difference vs placebo, weekly GCSI-24H total score” value ([1]; 30 mg/day, Week 4, ITT) of the same substance?
The value was 0.1 (0.19) points.

And the “LS Mean change from baseline, weekly GCSI-24H total score” value ([1]; 30 mg/day, Week 4, ITT)?
The value was −1.0 (0.13) points.

What about the “LS Mean Difference vs placebo, weekly GCSI-24H total score” value [1, 9] of the same substance?
Its value is 0.2 points.

What about the “LS Mean change from baseline, weekly GCSI-24H total score” value [1, 9] of the same substance?
Its value is −1.0 points.

And the “LS Mean Difference vs placebo, weekly GCSI-24H total score” value [1, 10]?
Its value is −0.1 (0.26) points.

And the “LS Mean change from baseline, weekly GCSI-24H total score” value [1, 10]?
The value was −1.0 (0.18) points.

And the “LS Mean Difference vs placebo, weekly GCSI-24H total score” value ([1]; 30 mg/day, Week 8, ITT)?
The value was −0.0 (0.20) points.

What about the “LS Mean change from baseline, weekly GCSI-24H total score” value ([1]; 30 mg/day, Week 8, ITT) of the same substance?
Its value is −1.3 (0.14) points.

And the “LS Mean Difference vs placebo, weekly GCSI-24H total score” value [1, 11]?
The value was 0.2 points.

And the “LS Mean change from baseline, weekly GCSI-24H total score” value [1, 11]?
Its value is −1.3 points.

And the “LS Mean Difference vs placebo, weekly GCSI-24H total score” value ([1]; 30 mg/day, Week 8, idiopathic patients)?
The value was −0.2 (0.29) points.

And the “LS Mean Difference vs placebo, weekly GCSI-24H total score” value ([1]; 30 mg/day, Week 12, ITT)?
Its value is −0.1 (0.22) points.

What about the “LS Mean change from baseline, weekly GCSI-24H total score” value ([1]; 30 mg/day, Week 12, ITT) of the same substance?
The value was −1.5 (0.15) points.

And the “LS Mean Difference vs placebo, weekly GCSI-24H total score” value [1, 12]?
Its value is 0.1 points.

And the “LS Mean change from baseline, weekly GCSI-24H total score” value [1, 12]?
Its value is −1.6 points.

And the “LS Mean Difference vs placebo, weekly GCSI-24H total score” value [1, 13]?
The value was −0.2 (0.30) points.

What about the “LS Mean change from baseline, weekly GCSI-24H total score” value [1, 13] of the same substance?
The value was −1.3 (0.21) points.

And the “LS Mean Difference vs placebo, weekly GCSI-24H total score” value [1, 14]?
The value was −0.1 points.

And the “LS Mean change from baseline, weekly GCSI-24H total score” value [1, 14]?
The value was −1.7 points.

And the “LS Mean Difference vs placebo, weekly GCSI-24H total score” value [1, 15]?
The value was 0.0 (0.29) points.

What about the “LS Mean change from baseline, weekly GCSI-24H total score” value [1, 15] of the same substance?
Its value is −1.0 (0.20) points.

And the “LS Mean Difference vs placebo, GRS Summary Score 1 (Factor 1)” value (“LS Mean Difference vs placebo … (Factor 1)” for short) ([2]; 5 mg/day, Week 4, ITT)?
Its value is −0.4 points and −0.4 (0.16) points.

What about the “LS Mean change from baseline, GRS Summary Score 1 (Factor 1)” value (“LS Mean change from baseline … (Factor 1)” for short) ([2]; 5 mg/day, Week 4, ITT) of the same substance?
Its value is −1.3 (0.11) points.

What about the “LS Mean Difference vs placebo … (Factor 1)” value [2, 16] of the same substance?
Its value is −0.3 (0.22) points.

What about the “LS Mean change from baseline … (Factor 1)” value [2, 16] of the same substance?
The value was −1.2 (0.16) points.

And the “LS Mean Difference vs placebo … (Factor 1)” value [2, 17]?
Its value is −0.5 (0.23) points.

What about the “LS Mean change from baseline … (Factor 1)” value [2, 17] of the same substance?
The value was −1.3 (0.16) points.

What about the “LS Mean Difference vs placebo … (Factor 1)” value ([2]; 5 mg/day, Week 8, ITT) of the same substance?
The value was −0.3 (0.18) points.

What about the “LS Mean change from baseline … (Factor 1)” value ([2]; 5 mg/day, Week 8, ITT) of the same substance?
The value was −1.4 (0.13) points.

What about the “LS Mean Difference vs placebo … (Factor 1)” value [2, 18] of the same substance?
The value was −0.2 (0.25) points.

What about the “LS Mean change from baseline … (Factor 1)” value [2, 18] of the same substance?
Its value is −1.4 (0.18) points.

And the “LS Mean Difference vs placebo … (Factor 1)” value [2, 19]?
Its value is −0.4 (0.26) points.

What about the “LS Mean change from baseline … (Factor 1)” value [2, 19] of the same substance?
Its value is −1.4 (0.18) points.

What about the “LS Mean Difference vs placebo … (Factor 1)” value ([2]; 5 mg/day, Week 12, ITT) of the same substance?
The value was −0.4 points and −0.4 (0.19) points.

And the “LS Mean change from baseline … (Factor 1)” value ([2]; 5 mg/day, Week 12, ITT)?
Its value is −1.5 (0.13) points.

What about the “LS Mean Difference vs placebo … (Factor 1)” value ([2]; 15 mg/day, Week 4, ITT) of the same substance?
Its value is −0.2 (0.17) points.

What about the “LS Mean change from baseline … (Factor 1)” value ([2]; 15 mg/day, Week 4, ITT) of the same substance?
The value was −1.1 (0.12) points.

And the “LS Mean Difference vs placebo … (Factor 1)” value [2, 20]?
The value was −0.2 points.

What about the “LS Mean change from baseline … (Factor 1)” value [2, 20] of the same substance?
Its value is −1.2 points.

And the “LS Mean Difference vs placebo … (Factor 1)” value [2, 21]?
Its value is −0.4 (0.25) points.

And the “LS Mean change from baseline … (Factor 1)” value [2, 21]?
Its value is −1.2 (0.18) points.

What about the “LS Mean Difference vs placebo … (Factor 1)” value ([2]; 15 mg/day, Week 8, ITT) of the same substance?
The value was −0.1 (0.19) points.

And the “LS Mean change from baseline … (Factor 1)” value ([2]; 15 mg/day, Week 8, ITT)?
The value was −1.2 (0.14) points.

What about the “LS Mean Difference vs placebo … (Factor 1)” value [2, 22] of the same substance?
The value was 0.0 points.

And the “LS Mean change from baseline … (Factor 1)” value [2, 22]?
Its value is −1.2 points.

And the “LS Mean Difference vs placebo … (Factor 1)” value [2, 23]?
The value was −0.4 (0.28) points.

And the “LS Mean change from baseline … (Factor 1)” value [2, 23]?
Its value is −1.3 (0.20) points.

And the “LS Mean Difference vs placebo … (Factor 1)” value ([2]; 15 mg/day, Week 12, ITT)?
Its value is −0.2 (0.2) points.

And the “LS Mean change from baseline … (Factor 1)” value ([2]; 15 mg/day, Week 12, ITT)?
Its value is −1.3 (0.15) points.

And the “LS Mean Difference vs placebo … (Factor 1)” value [2, 24]?
The value was 0.0 points.

What about the “LS Mean change from baseline … (Factor 1)” value [2, 24] of the same substance?
The value was −1.3 points.

And the “LS Mean Difference vs placebo … (Factor 1)” value [2, 25]?
Its value is −0.4 (0.29) points.

What about the “LS Mean change from baseline … (Factor 1)” value [2, 25] of the same substance?
Its value is −1.4 (0.22) points.

And the “LS Mean Difference vs placebo … (Factor 1)” value ([2]; 30 mg/day, Week 4, ITT)?
Its value is 0.0 (0.17) points.

And the “LS Mean change from baseline … (Factor 1)” value ([2]; 30 mg/day, Week 4, ITT)?
Its value is −0.8 (0.12) points.

What about the “LS Mean Difference vs placebo … (Factor 1)” value [2, 26] of the same substance?
Its value is 0.1 points.

What about the “LS Mean change from baseline … (Factor 1)” value [2, 26] of the same substance?
The value was −0.8 points.

And the “LS Mean Difference vs placebo … (Factor 1)” value [2, 27]?
The value was −0.0 (0.23) points.

And the “LS Mean change from baseline … (Factor 1)” value [2, 27]?
Its value is −0.8 (0.16) points.

What about the “LS Mean Difference vs placebo … (Factor 1)” value ([2]; 30 mg/day, Week 8, ITT) of the same substance?
Its value is −0.1 (0.18) points.

What about the “LS Mean change from baseline … (Factor 1)” value ([2]; 30 mg/day, Week 8, ITT) of the same substance?
Its value is −1.1 (0.13) points.

What about the “LS Mean Difference vs placebo … (Factor 1)” value [2, 28] of the same substance?
Its value is 0.0 points.

What about the “LS Mean change from baseline … (Factor 1)” value [2, 28] of the same substance?
The value was −1.2 points.

What about the “LS Mean Difference vs placebo … (Factor 1)” value [2, 29] of the same substance?
The value was −0.2 (0.26) points.

And the “LS Mean change from baseline … (Factor 1)” value [2, 29]?
The value was −1.1 (0.18) points.

What about the “LS Mean Difference vs placebo … (Factor 1)” value ([2]; 30 mg/day, Week 12, ITT) of the same substance?
The value was −0.1 (0.2) points.

And the “LS Mean change from baseline … (Factor 1)” value ([2]; 30 mg/day, Week 12, ITT)?
Its value is −1.2 (0.14) points.

What about the “LS Mean Difference vs placebo … (Factor 1)” value [2, 30] of the same substance?
The value was −0.1 points.

And the “LS Mean change from baseline … (Factor 1)” value [2, 30]?
Its value is −1.3 points.

What about the “LS Mean Difference vs placebo … (Factor 1)” value [2, 31] of the same substance?
Its value is −0.1 (0.28) points.

And the “LS Mean change from baseline … (Factor 1)” value [2, 31]?
The value was −1.1 (0.19) points.
